# Laboratory results published in patent US8936808B1, “Opioid agonist/opioid antagonist/acetaminophen combinations” (Purdue Pharma L.P., priority 1997, dated 2015).
# Entries after “also recorded” stand apart in the source; their conditions may differ. Read-outs that look alike come from different tables or passages of the source.
# Assays:
# [1] = type: in vivo
# Text: In certain other preferred embodiments, the opioid included in the dosage form is a different orally active opioid agonist than hydrocodone. […] Equianalgesic dosages of various opioid analgesics are provided below, and are otherwise known to those skilled in the art, e.g, from Foley, K. “The Treatment of Cancer Pain;” N. Engl.
# In certain preferred embodiments, the opioid agonist is hydrocodone. Equianalgesic doses of the remaining opioids mentioned herein (and others) are known to those skilled in the art.
# [2] = test system: opioid agonist properties of hydrocodone; assay: Example 1: naltrexone antagonism of hydrocodone 15 mg (VAS drug effect, pupillometry), four-way crossover study
# Experimental: All treatments were administered under fasted conditions. […] Subjects were randomly assigned to four treatment sequences of the four treatment groups. […] Safety measurements consisted of reports of adverse events, vital signs, abnormal laboratory values, abnormal physical examination and ECG results. Pharmacodynamic parameters (pupil size and Modified Specific Drug Effect Questionnaire) were also assessed.
# Pupil Size—Measured by Pupillometry.
# The camera was centered in front of the subject's face with 3 inch frame against the lateral orbital rims and the eyes occupying the very top of the field (to minimize upgaze). The subject was asked to look just over the camera body and to fixate on a non-accommodative target in the distance, thereby minimizing the near reflex. With the volunteer fixing in the distance, the photo was taken. All photographs were taken in constant ambient light. The pupillary latency was such that the flash will not affect pupillary diameter. […] Development of the print for the recommended length of time (approximately one (1) minute, varying with ambient temperature) will produce a one-to-one photograph of the volunteer's midface, with the pupils at the top of the print. Horizontal pupillary diameter is then measured using a simple plus magnifier with a built-in reticule calibrated to 0.1 millimeter. Only the left eye was used to measure pupillary effects at each time period specified in the protocol. • b. A Modified Specific Drug Effect Questionnaire. […] The present questionnaire consisted of 10 items rated by the subject 10 minutes prior to blood sampling. The item is related to signs of opiate agonist drugs and was as follows: Subject questions: 1) do you feel any effects from the drugs?, 2) does your skin feel itchy?, 3) do you feel relaxed?, 4) do you feel sleepy?, 5) do you feel drunk?, 6) do you feel nervous?, 7) do you feel full of energy?, 8) do you feel you need to talk?, 9) do you feel sick to your stomach?, 10) do you feel dizzy? The subject then rated the item by placing a vertical mark along a 100 mm visual analog scale (VAS) anchored on one end by “not at all” and at the other end by “an awful lot”.
# [3] = test system: precipitated withdrawal / subjective effects of hydrocodone; assay: Example 3: precipitated withdrawal in morphine dependent volunteers receiving hydrocodone 30 mg and naltrexone oral solution; type: in vivo, human
# [4] = cited from earlier work
# [5] = cited from earlier work; remark: listed apart in the source
# [6] = cited from earlier work; remark: listed apart in the source
# [7] = test system: effects of morphine-like opioid agonist / heroin; settings: cited from earlier work
# [8] = test system: mu over delta sites; settings: cited from earlier work
# [9] = test system: opioid agonist effects of hydrocodone; assay: Example 2: ratio of oral naltrexone to oral hydrocodone, ten-period crossover (VAS drug effect, pupil diameter); type: in vivo, human
# Experimental: All treatments were administered under fasted conditions. […] Subjects were randomly assigned to ten treatment sequences of the ten treatment groups.
# The fast continued for an additional four (4) hours post-dose.
# All samples were collected within ±2 minute of the scheduled time.
# [10] = in comparison to a 15 mg dose of hydrocodone
# [11] = 15 mg hydrocodone (HYIR/APAP) with increasing doses of naltrexone, range 0 mg-12.8 mg
# [12] = 6.4-mg naltrexone dose, hydrocodone 15 mg
molecule,measurement,setting,value
COc1ccc2c3c1O[C@H]1[C@@H](O)C=C[C@H]4[C@@H](C2)N(C)CC[C@@]341 [Codeine],"Equianalgesic Doses of Opioids, Calculated Dose",[1]; [10],90.0 mg
"COc1ccc2c3c1OC1C(=O)CC[C@H]4[C@@H](C2)N(C)CC[C@]314 (stereo partly drawn) [Hydrocodone, 4,5-epoxy-3-methoxy-17-methylmorphinan-6-one]","Equianalgesic Doses of Opioids, Calculated Dose",[1]; [10],15.0 mg
same,pupillary constriction,[2]; hydrocodone 15 mg plus naltrexone placebo,most pupillary constriction
same,onset of effect,[3]; in combination with naltrexone,< 0.5 h
same,relative analgesic potency versus oral morphine,"[4]; in vivo, po",about two times
CN1CC[C@]23CCCC[C@H]2[C@H]1Cc1ccc(O)cc13 [Levorphanol],"Equianalgesic Doses of Opioids, Calculated Dose",[1]; [10],1.8 mg
CCC(=O)C(CC(C)N(C)C)(c1ccccc1)c1ccccc1 (stereo not drawn) [Methadone],"Equianalgesic Doses of Opioids, Calculated Dose",[1]; [10],9.0 mg
CN1CC[C@]23c4c5ccc(O)c4O[C@H]2[C@@H](O)C=C[C@H]3[C@H]1C5 [Morphine],"Equianalgesic Doses of Opioids, Calculated Dose",[1]; in vivo,27.0 mg
COc1ccc2c3c1O[C@H]1C(=O)CC[C@@]4(O)[C@@H](C2)N(C)CC[C@]314 [Oxycodone],"Equianalgesic Doses of Opioids, Calculated Dose",[1]; [10],13.5 mg
CC(=O)Nc1ccc(O)cc1 [acetaminophen],solubility in water,[5],only poorly soluble in water
C[C@H]1[C@H]2Cc3ccc(O)cc3[C@]1(C)CCN2CC1CC1 [cyclazocine],duration of action after oral doses,[6],~24 h
CN1CC[C@]23c4c5ccc(O)c4O[C@H]2[C@@H](O)C=C[C@H]3[C@H]1C5.O=S(=O)(O)O [morphine sulphate],oral hydrocodone dose equivalent to 15 mg i.m.,[4]; 15 mg i.m.,30 mg
C=CCN1CC[C@]23c4c5ccc(O)c4O[C@H]2C(=O)CC[C@@]3(O)[C@H]1C5 [naloxone],block of the effect of 25 mg of heroin,[7]; 1 mg intravenously,completely block
same,effect on morphine-like opioid agonist effects,[7]; 0.4-0.8 mg intramuscularly or intravenously in man,prevent or promptly reverse
O=C1CC[C@@]2(O)[C@H]3Cc4ccc(O)c5c4[C@@]2(CCN3CC2CC2)[C@H]1O5 [naltrexone],"blocking action, receptor preference",[8],strong preferential blocking action against mu over delta sites
same,drug effect VAS score,[9]; [11],overall decrease
same,pupillary constriction / pupil diameter,[9]; [11],decrease in pupillary constriction; also recorded: increase in pupil diameter
same,antagonism of the 15 mg hydrocodone dose,[9]; approximately 0.4 mg naltrexone,minimally antagonized
same,effect of the hydrocodone dose,[9]; naltrexone dosages above 0.4 mg,increasing diminution
same,block of the opioid effect (VAS drug effect) of hydrocodone,[2]; [12],not completely blocked
same,block of the pupillary constriction of hydrocodone,[2]; [12],not completely blocked
same,"antagonism of hydrocodone-induced pupillary constriction, relation to dose","[2]; naltrexone 3.2 and 6.4 mg with hydrocodone 15 mg, FIG. 2",dose-response effect
same,"antagonism of hydrocodone-induced VAS drug effect, relation to dose","[2]; naltrexone oral solution 3.2 and 6.4 mg with hydrocodone 15 mg, FIG. 1",dose-response effect
same,effect on opioid agonist effects of 25 mg intravenous heroin challenge,[7]; 50 mg given 24 hours prior to challenge,completely blocked or attenuated
same,precipitated withdrawal (abstinence),"[3]; naltrexone 1 and 2 mg with hydrocodone 30 mg, first protocol",slight abstinence
same,subjective experience of hydrocodone on addition of naltrexone,"[3]; physically dependent subjects, hydrocodone 30 mg",decreased the favorable subjective experience of hydrocodone
Meperidine,"Equianalgesic Doses of Opioids, Calculated Dose",[1]; [10],135.0 mg
